# Experimental data: ChEMBL document CHEMBL5725908, “Tricyclic DLK inhibitors and uses thereof” (2018)
# Molecular target: T1, Mitogen-activated protein kinase kinase kinase 12 (Homo sapiens, UniProt Q12852)
# T1 sequence (Q12852 whole entry): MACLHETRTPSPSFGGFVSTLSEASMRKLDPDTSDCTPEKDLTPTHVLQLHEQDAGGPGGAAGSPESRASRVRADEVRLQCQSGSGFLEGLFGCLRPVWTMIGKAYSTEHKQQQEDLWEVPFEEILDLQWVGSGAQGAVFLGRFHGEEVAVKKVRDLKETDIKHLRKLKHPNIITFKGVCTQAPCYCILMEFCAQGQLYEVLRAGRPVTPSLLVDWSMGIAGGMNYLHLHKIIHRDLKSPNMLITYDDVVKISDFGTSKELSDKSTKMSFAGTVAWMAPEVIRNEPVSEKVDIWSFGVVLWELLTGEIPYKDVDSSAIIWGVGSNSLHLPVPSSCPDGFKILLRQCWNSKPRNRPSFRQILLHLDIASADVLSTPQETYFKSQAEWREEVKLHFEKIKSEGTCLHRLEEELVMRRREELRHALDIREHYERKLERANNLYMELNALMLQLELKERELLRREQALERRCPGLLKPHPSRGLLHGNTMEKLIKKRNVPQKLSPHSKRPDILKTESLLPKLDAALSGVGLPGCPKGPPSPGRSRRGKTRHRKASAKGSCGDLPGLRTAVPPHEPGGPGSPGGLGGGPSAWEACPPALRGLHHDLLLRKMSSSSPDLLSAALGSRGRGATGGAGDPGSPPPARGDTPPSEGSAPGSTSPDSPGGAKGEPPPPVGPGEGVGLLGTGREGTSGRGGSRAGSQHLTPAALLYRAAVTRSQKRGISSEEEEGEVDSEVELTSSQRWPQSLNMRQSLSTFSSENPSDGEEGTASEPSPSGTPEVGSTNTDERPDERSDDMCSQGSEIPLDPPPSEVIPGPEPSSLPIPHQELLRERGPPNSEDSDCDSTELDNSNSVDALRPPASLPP
# Test: DLK TR-FRET Inhibition Assay: DLK kinase reactions (20 μL) containing 5 nM N-terminally GST-tagged DLK (catalytic domain amino acid 1-520) (Carna Bioscience), 40 nM N-terminally HIS tagged MKK4 K131M substrate, and 30 μM ATP in kinase reaction buffer (50 mM HEPES, pH 7.5, 0.01% Triton X-100, 0.01% Bovine γ-Globulins, 2 mM DTT, 10 mM MgCl2 and 1 mM EGTA), and testing compound 1:3 serial diluted starting at 20 uM were incubated at ambient temperature for 60 minutes in 384 well OptiPlate (Perkin Elmer). To quench kinase reactions and detect phosphorylated MKK4, 15 μL of TR-FRET antibody mixture containing 2 nM anti-phosphorylated MKK4 labeled with Europium cryptate (Cisbio) and 23 nM anti-HIS labeled with D2 (Cisbio) in detection buffer (25 mM Tris pH 7.5, 100 mM NaCl, 100 mM EDTA, 0.01% Tween-20, and 200 mM KF) was added to the reaction mixture. The detection mixture was incubated for 3 hours at ambient temperature and the TR-FRET was detected with an EnVision multilabel plate reader (Perkin-Elmer) using the LANCE/DELFIA Dual Enh label from Perkin-Elmer (excitation filter: UV2 (TRF) 320 and emission filters: APC 665 and Europium 615).
row,Compound,Ki [nM]
1,Cc1c[nH]c2ncc(-c3nc(N4CC5COCC5C4)c4nc5n(c4n3)CCOC5(C)C)cc12 (centres undefined),46.3
2,CC(C)n1nccc1-c1nc(-c2cnc(N)nc2)nc2c1nc1n2CCOC1(C)C,1400
3,CC1(C)OCCn2c1nc1c(N3CC4COCC4C3)nc(-c3cnc(N)nc3)nc12 (centres undefined),995
4,COC1C2CCC1N(c1nc(-c3cnc(N)nc3)nc3c1nc1n3CCOC1(C)C)C2 (centres undefined),223
